Data as given in US20090011950A1, “METHOD FOR DETECTING ORAL SQUAMOUS-CELL CARCINOMA AND METHOD FOR SUPPRESSING THE SAME” (priority 2007, published 2009).

Columns and labels:
[1] = test system: PRTFDC1 gene expression in oral squamous-cell carcinoma cell lines not expressing the PRTFDC1 gene; assay: RT-PCR of PRTFDC1 gene expression after treatment with demethylating reagent or deacetylation inhibitory agent; type: cell-based; details: oral squamous-cell carcinoma cells (NA, HSC-2, ZA)
Description: (d) Oral squamous-cell carcinoma cells (NA, HSC-2, and ZA) were treated (+) or not treated (−) with 5-aza-dCyd ([…]) for 5 days or with TSA ([…]) for 24 hours. The results of RT-PCR analysis on the PRTFDC1 gene in the oral squamous-cell carcinoma cells are shown.
To examine the expression levels of the 6 above genes (the PRTFDC1 gene, the e10orf6 gene, the THNSL1 gene, the GPR158 gene, the MYO3A gene, and the GAD2 gene), 18 types of oral squamous-cell carcinoma cell line and normal oral epithelium cells were subjected to reverse transcriptase (RT)-PCR. Specifically, a single-chain cDNA was synthesized from the RNA extracted from each cultured cell line using the SuperScript First-Strand Synthesis System (Invitrogen). PCR was then performed using primer sequences listed in Table 4 (supplementary Table 1). Moreover, a glyceraldehyde-3-phosphate dehydrogenase (GAPDH) gene was used as a control. As a result, complete disappearance of PRTFDC1 mRNA expression could be confirmed in 8 cell lines in which homozygous deletion of chromosomal region 10p12 should not have taken place, as in the case of HSC-6 cells (FIG. 2c). […] Such disappearance of PRTFDC1 mRNA expression in the oral squamous-cell carcinoma cell lines may be due to a mechanism other than genomic deletion, such as an epigenetic phenomenon.
To examine if the suppressed expression of the PRTFDC1 gene was due to DNA methylation, oral squamous-cell carcinoma cell lines not expressing the PRTFDC1 gene were treated using a 1 μM or 5 μM demethylating reagent 5—aza—dCyd for 5 days and/or using deacetylation inhibitory agent TSA (100 ng/ml) for 24 hours. RNAs were extracted from these cells and then PRTFDC1 gene expression was examined by RT-PCR (FIG. 2d).

[2] = test system: CpG islands of the PRTFDC1 gene; assay: Demethylation of CpG islands by culturing oral squamous-cell carcinoma cells with demethylating reagent; type: cell-based; details: oral squamous-cell carcinoma cells cultured in the presence of the reagent

Row | SMILES | PRTFDC1 gene expression (RT-PCR) ([1]; 5-aza-dCyd 1 μM or 5 μM for 5 days) | PRTFDC1 gene expression (RT-PCR) ([1]; 5-aza-dCyd 1 μM or 5 μM for 5 days, listed as 5-azadeoxycytidine) | demethylation of CpG islands [2] | PRTFDC1 gene expression (RT-PCR) ([1]; TSA 100 ng/ml for 24 hours)
1 | Nc1ncn([C@H]2C[C@H](O)[C@@H](CO)O2)c(=O)n1 [5-aza-dCyd, 5-azadeoxycytidine] | recovers its gene expression | possible to recover the expression level | possible to demethylate | –
2 | CC(/C=C/C(=O)NO)=C\[C@@H](C)C(=O)c1ccc(N(C)C)cc1 [TSA] | – | – | – | no differences
